Data from patent US5080884A, “Hydrocarbylphenyl diaminodithiol radionuclide complexes and their use in imaging” (Medi-Physics, Inc., priority 1991, dated 1992).

Legend:
[1] = Electrophoresis of Tc-99m complex (NaH2PO4, pH 4.5); assay type: physicochemical; conditions: 0.05 M NaH2PO4, pH 4.5, 300 volts, 30 min
[2] = Biological distribution of Tc-99m complexes in rats (pentobarbital anesthesia); assay type: in vivo, Female Sprague-Dawley rats; conditions: average of 2 rats; for Blood, % Injected Dose/Gram Tissue / Brain, % Injected Dose/Gram Tissue / Heart, % Injected Dose/Gram Tissue: pentobarbital anesthesia; for Brain:Blood / Heart:Blood: ratio
Description: Distribution of the Tc-99m labeled compounds was evaluated in rats. Female Sprague-Dawley rats weighing 140 to 220 g (average 170 g) were anesthetized with sodium pentobarbital and were injected in a tail vein with from 0.05 to 10 mCi of the Tc-99m labeled complex in a volume of 0.2 to 0.5 ml. At least two rats were injected for each time point.
The animals were sacrificed at 5 and 30 minutes after injection and selected organs were removed; the tails were discharged to avoid interference from the injection site. The radioactivity in each organ was measured at a standard geometry with a […] sodium iodide scintillation detector adjusted for the 140 KeV emission of Tc-99m. The organs were also weighed to one hundredth of a gram and the activity was calculated as a percent of administered dose per gram.

[3] = 5 min after i.v. (tail vein) injection
[4] = 30 min after i.v. (tail vein) injection

With “Tc-99m complex of 2-(2-Butylthio-2-methylpropylamino)-1-(2-mercapto-2-methylpropylamino)-3-methylbenzene [Example 53]” as the substance, how does the Electrophoresis [1] read?
The Electrophoresis was “neutral”.

What about the “Blood, % Injected Dose/Gram Tissue” value [2, 3] of the same substance?
The value was 0.76 % Injected Dose/Gram Tissue.

And the “Brain, % Injected Dose/Gram Tissue” value [2, 3]?
Its value is 0.29 % Injected Dose/Gram Tissue.

What about the “Heart, % Injected Dose/Gram Tissue” value [2, 3] of the same substance?
The value was 1.58 % Injected Dose/Gram Tissue.

And the “Blood, % Injected Dose/Gram Tissue” value [2, 4]?
The value was 0.41 % Injected Dose/Gram Tissue.

And the “Brain, % Injected Dose/Gram Tissue” value [2, 4]?
The value was 0.29 % Injected Dose/Gram Tissue.

What about the “Heart, % Injected Dose/Gram Tissue” value [2, 4] of the same substance?
Its value is 0.85 % Injected Dose/Gram Tissue.

What about the “Brain:Blood” value ([2]; 5 min after i.v. injection) of the same substance?
Its value is 0.38.

And the “Heart:Blood” value ([2]; 5 min after i.v. injection)?
The value was 2.06.

What about the “Brain:Blood” value ([2]; 30 min after i.v. injection) of the same substance?
Its value is 0.71.

And the “Heart:Blood” value ([2]; 30 min after i.v. injection)?
The value was 2.09.
